Tests used:
[1] = Acute toxicity studies in rats, single oral limit-dose; assay type: in vivo; settings: single oral limit-dose of 5 g/Kg
Text: The Journal of the Philippine Medical Association, 22, #7, 395402, 1940; Garcia, F. Distribution and Deterioration of Insulin-like Principle in Lagerstroemia Speciosa (Banaba). Acta Medica Philippina, 99-104; Garcia, F., and Melencio-Maglalang, P. Application of Banabins (A Plantisul Preparation) and S. B. Menus to Diabetics. The Journal of the Philippine Medical Association, 33, #1, 7-16, 1957; Garcia, F. Criticisms and Answers on Published Articles concerning Banabins or Plantisul Tablets. The Journal of the Philippine Medical Association, 35, #5, 313-319, 1959; Garcia, L., Pojas, F., Castro, I., Venzon, E., Sisson, F. and Capal, T. Pharmaceutico-chemical and Pharmacological Studies on a Crude Drug from Lagerstroemia Speciosa. The Philippine Journal of Science, 116, #4, 361-375, 1987; Scalori V et al., Int. J. Tiss. Reac., 1983, X 2, 95-97).

[2] = tested on: Ehrlich Ascites tumor cells; settings: in-vitro; cited from earlier work

C[C@H]1[C@H](C)CC[C@]2(C(=O)O)CC[C@]3(C)C(=CC[C@@H]4[C@@]5(C)C[C@@H](O)[C@H](O)C(C)(C)[C@@H]5CC[C@]43C)[C@H]12 [Corosolic acid, 2-a-hydroxyursolic acid]
acute toxicity [1]: safe and non-toxic
cellular uptake of glucose [2]: improves the cellular uptake of glucose
